Experimental data reported in US4966973A, “2-substituted coumaran derivatives” (Takeda Chemical Industries, Ltd., priority 1988, dated 1990).

Biological target: T1, 5-lipoxygenase (Rattus norvegicus, UniProt P12527)
T1 construct: endogenous in cells; host or cells: RBL-1 (rat basophilic leukemia) cells
T1 sequence (P12527 1-673): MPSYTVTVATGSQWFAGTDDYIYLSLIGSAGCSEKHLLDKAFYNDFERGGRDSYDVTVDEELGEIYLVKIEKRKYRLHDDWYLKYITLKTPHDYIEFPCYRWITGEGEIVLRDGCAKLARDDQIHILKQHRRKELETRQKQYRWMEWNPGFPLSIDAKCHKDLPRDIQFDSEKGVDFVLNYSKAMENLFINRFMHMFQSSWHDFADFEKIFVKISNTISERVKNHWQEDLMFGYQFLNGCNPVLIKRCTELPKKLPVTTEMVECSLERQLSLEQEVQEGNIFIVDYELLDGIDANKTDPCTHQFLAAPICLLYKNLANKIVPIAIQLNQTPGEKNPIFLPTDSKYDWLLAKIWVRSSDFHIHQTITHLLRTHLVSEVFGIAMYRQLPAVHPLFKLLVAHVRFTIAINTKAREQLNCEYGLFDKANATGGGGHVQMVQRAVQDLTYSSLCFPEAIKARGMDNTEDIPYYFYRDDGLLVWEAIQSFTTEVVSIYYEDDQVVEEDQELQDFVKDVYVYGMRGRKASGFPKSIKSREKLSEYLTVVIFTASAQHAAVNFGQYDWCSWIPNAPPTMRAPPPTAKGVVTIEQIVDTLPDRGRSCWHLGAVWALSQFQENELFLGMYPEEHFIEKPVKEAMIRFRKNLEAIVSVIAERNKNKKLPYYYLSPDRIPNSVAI
Experiment: Effect of Inhibiting 5-Lipoxygenase (inhibition of 5-HETE production in RBL-1 cells, HPLC)
Assay type: cell-based
Conditions: arachidonic acid + A-23187, 37° C., 20 min, read-out: % Inhibition (IE) of 5-HETE production; for inhibition at 10 µM: 10^-5 M; for inhibition at 1 µM: 10^-6 M; for inhibition at 0.1 µM: 10^-7 M; for inhibition at 0.01 µM: 10^-8 M
Experimental: In 0.5 ml of MCM (mast cell medium) was suspended 10^7 of rat basophilic leukemia (RBL-1) cells. To this suspension was added the test solution previously prepared [consisting of 0.5 ml of MCM, […] of arachidonic acid, 10 μg of calcium ionophore A-23187 and the test compound (final concentrations 10 μM, 1 μM, 0.1 μM and 0.01 μM)], and the reaction was allowed to proceed at 37° C. for 20 minutes. To the reaction mixture was added 4 ml of ethanol, which was shaken sufficiently, followed by leaving the resultant mixture standing for 10 minutes at room temperatures. The resultant mixture was subjected to a centrifuge (2000 rpm) for 10 minutes, then the supernatant was separated. Thus-separated supernatant was concentrated to dryness under reduced pressure. To the concentrate was added 0.5 ml of a 60% aqueous methanol. A 100 μl portion of this solution was taken and subjected to high performance liquid chromatography to determine 5-HETE (5-hydroxyeicosatetraenoic acid) quantitatively. UV absorption of 5-HETE at 237 nm was measured with a UV absorption monitor. The inhibitory effect (IE) of 5-HETE is expressed by (1-b/a) x 100. In this formula, a means the height of the peak or the area of the peak in the case of presence of no compound (I), while b means the height of the peak or the area of the peak in the case of containing the compound (I).

Row | SMILES | inhibition at 10 µM | inhibition at 1 µM | inhibition at 0.1 µM | inhibition at 0.01 µM
1 | Cc1c(C)c2c(c(C)c1O)CC(CSc1ccccn1)O2 (centres unmarked) [Compound 7] | 100% | 100% | 45% | 
2 | CCCCCCCCSCC1Cc2c(C)c(O)c(C)c(C)c2O1 (centres unmarked) [Compound 5] | 100% | 100% | 48% | 24%
3 | Cc1c(C)c2c(c(C)c1O)CC(CS(=O)(=O)c1ccccc1)O2 (centres unmarked) [Compound 15] | 100% | 100% | 19% | 10%
4 | Cc1c(C)c2c(c(C)c1O)CC(C[S+]([O-])c1ccccc1)O2 (centres unmarked) [Compound 13] | 100% | 100% | 8% | 
5 | Cc1c(C)c2c(c(C)c1O)CC(CSc1ccc(F)cc1)O2 (centres unmarked) [Compound 9] | 100% | 100% | 96% | 8%
6 | Cc1c(C)c2c(c(C)c1O)CC(CSc1ccc3ccccc3c1)O2 (centres unmarked) [Compound 11] | 100% | 100% | 19% | 
7 | Cc1c(C)c2c(c(C)c1O)CC(CSCCC(=O)O)O2 (centres unmarked) [Compound 1] | 100% | 100% | 64% | 13%

More lines, now with the values ahead:

Row | inhibition at 10 µM | inhibition at 1 µM | inhibition at 0.1 µM | inhibition at 0.01 µM | SMILES
8 | 100% | 100% | 98% | 18% | Cc1c(C)c2c(c(C)c1O)CC(C)(CSc1ccc(F)cc1)O2 (centres unmarked) [Compound 21]
9 | 100% | 100% | 88% |  | Cc1c(C)c2c(c(C)c1O)CC(CSCc1ccccc1)O2 (centres unmarked) [Compound 17]
10 | 100% | 100% | 100% | 42% | Cc1c(C)c2c(c(C)c1O)CC(CSc1ccccc1)O2 (centres unmarked) [Compound 3]
11 | 95% | 99% | 94% | 14% | Cc1c(C)c2c(c(C)c1O)CC(C)(CNCCc1ccccc1)O2 (centres unmarked) [Compound 25]
12 | 100% | 99% | 87% | -5% | Cc1c(C)c2c(c(C)c1O)CC(C)(CSc1ccccc1)O2 (centres unmarked) [Compound 19]
